From patent US20230380435A1, “METHOD FOR PREPARING AND PRESERVING SANITIZED PRODUCTS” (Apeel Technology, Inc., priority 2016, published 2023)

Assays:
blueberries = test: Effect of ethanol on post-harvest mass loss of blueberries; settings: after just under four days, solvent only, no coating agent, 23-27 °C, humidity 40%-55%
From the text: The blueberries were all harvested simultaneously and divided into groups, each of the groups being qualitatively identical to the other groups (i.e., all groups had blueberries of approximately the same average size and quality).
Blueberries were harvested simultaneously and divided into four groups of sixty blueberries each, each of the groups being qualitatively identical (i.e., all groups had blueberries of approximately the same average size and quality). The first group of blueberries was not washed or treated in any way and served as a control group.
To treat the blueberries with the various solvents, the blueberries were placed in bags, and the solvent was poured into the bag. The bag was then sealed and lightly agitated until the entire surface of each blueberry was wet. The blueberries were then removed from the bag and allowed to dry on drying racks. The blueberries were kept under ambient room conditions at a temperature in the range of 23° C.-27° C. and humidity in the range of 40%-55% while they dried and for the entire duration of the time they were tested.

Botrytis = settings: applied for 10 at least seconds; cited from earlier work
Listeria monocytogenes = settings: cited from earlier work

Q: With `CCO` [substantially pure ethanol (108), ethanol] as the compound, how does the “average percent mass loss” value (blueberries) read?
A: Its value is “about 19%”.

Q: What about the “ethanol concentration inhibiting germination” value (Botrytis) of the same compound?
A: The value was no less than 30%.

Q: What about the “ethanol concentration inhibiting (not completely stopping) growth” value (Listeria monocytogenes) of the same compound?
A: The value was 5%.
